Test results: ChEMBL document CHEMBL1201862, “PubChem BioAssay data set” (2004)
The source made the active and inactive calls.

Legend:
[1] = test system: Streptococcus sp. 'group A'; experiment: growth inhibition of control SK(-) GAS strain, dose response, counter-screen for streptokinase expression inhibitor project, luminescence, kanamycin, BacTiterGlo, confirmation (AID 1900); assay type: functional, organism-based
[2] = target: T1, Protein RecA (Mycobacterium tuberculosis, UniProt P9WHJ3); experiment: Fluorescence Cell-Free Homogeneous Dose Retest to Identify Inhibitors of RecA-Intein Splicing Activity. [Related pubchem assays (depositor defined):AID2097, AID2223, AID489010, AID492950]; assay type: functional
T1 sequence (P9WHJ3 whole entry): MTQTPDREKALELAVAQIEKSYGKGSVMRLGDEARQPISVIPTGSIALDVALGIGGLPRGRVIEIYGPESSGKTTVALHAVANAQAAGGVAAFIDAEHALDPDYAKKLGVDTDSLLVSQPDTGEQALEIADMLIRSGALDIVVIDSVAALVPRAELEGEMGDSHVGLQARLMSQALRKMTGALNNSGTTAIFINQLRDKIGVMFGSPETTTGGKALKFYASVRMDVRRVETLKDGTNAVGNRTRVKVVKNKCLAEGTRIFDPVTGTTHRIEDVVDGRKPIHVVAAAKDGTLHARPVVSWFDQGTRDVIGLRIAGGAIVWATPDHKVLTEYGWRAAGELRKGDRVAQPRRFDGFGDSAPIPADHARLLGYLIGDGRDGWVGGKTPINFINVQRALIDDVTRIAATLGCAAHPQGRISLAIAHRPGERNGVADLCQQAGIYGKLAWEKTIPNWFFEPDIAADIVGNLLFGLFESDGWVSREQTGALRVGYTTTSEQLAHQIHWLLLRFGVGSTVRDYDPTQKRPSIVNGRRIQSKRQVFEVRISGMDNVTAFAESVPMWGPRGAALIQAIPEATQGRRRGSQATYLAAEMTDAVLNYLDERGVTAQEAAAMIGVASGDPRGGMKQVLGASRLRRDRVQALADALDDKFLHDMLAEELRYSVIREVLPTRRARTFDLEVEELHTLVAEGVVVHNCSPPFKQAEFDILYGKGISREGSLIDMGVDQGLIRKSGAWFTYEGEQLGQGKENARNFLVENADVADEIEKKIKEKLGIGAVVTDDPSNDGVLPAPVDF

[3] = HIV-1 Env-mediated cell fusion inhibitors, dose response, CCR5-tropic Env (AID 2279); assay type: functional
[4] = target: Genome polyprotein (dengue virus type 2, UniProt P29990); experiment: Dengue-2 NS5 methyltransferase inhibitors, primary screen, biochemical, confirmation dose response (AID 588689); assay type: functional
Chain of Genome polyprotein (P29990 2492-3391 limits assumed): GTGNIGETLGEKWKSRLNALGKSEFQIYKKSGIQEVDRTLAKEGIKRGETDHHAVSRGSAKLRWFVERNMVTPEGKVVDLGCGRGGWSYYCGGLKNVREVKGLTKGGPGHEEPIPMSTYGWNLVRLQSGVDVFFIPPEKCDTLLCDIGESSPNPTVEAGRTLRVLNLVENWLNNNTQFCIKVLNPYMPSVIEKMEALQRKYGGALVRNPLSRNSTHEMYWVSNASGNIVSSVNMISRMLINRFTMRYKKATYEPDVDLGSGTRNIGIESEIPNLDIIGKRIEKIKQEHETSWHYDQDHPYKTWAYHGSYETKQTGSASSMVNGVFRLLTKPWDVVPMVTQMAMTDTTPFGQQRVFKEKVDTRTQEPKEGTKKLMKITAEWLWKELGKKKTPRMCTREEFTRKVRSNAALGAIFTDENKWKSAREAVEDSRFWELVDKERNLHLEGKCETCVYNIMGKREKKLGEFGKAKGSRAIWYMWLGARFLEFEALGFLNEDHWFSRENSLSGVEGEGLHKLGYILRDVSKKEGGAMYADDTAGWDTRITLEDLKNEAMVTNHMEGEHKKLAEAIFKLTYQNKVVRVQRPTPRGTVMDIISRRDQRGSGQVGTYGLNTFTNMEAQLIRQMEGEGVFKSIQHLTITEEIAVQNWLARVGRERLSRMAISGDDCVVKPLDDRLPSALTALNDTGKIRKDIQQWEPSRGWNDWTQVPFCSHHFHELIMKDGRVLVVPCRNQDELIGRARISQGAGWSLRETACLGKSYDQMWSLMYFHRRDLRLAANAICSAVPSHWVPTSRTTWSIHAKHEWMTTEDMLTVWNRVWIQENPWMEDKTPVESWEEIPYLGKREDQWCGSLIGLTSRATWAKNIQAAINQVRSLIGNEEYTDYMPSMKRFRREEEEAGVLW

[5] = test system: Streptococcus; experiment: Group A Streptococcus viability loss, dose response, counter-screen for streptokinase expression inhibitor project, luminescence, BacTiterGlo (AID 1915); assay type: functional, organism-based;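 also: potency for reduction of bacterial viability or growth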
[6] = target: T2, Streptokinase A (Streptococcus pyogenes serotype M1, UniProt P10520); experiment: S. pyogenes streptokinase expression inhibitors, potency, dose response, plasminogen activation absorbance, OD405 (AID 1914); assay type: functional, Streptococcus pyogenes M1 GAS;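 also: secreted streptokinase activity via plasminogen activation per viability signal from cell pellet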
T2 sequence (P10520 whole entry): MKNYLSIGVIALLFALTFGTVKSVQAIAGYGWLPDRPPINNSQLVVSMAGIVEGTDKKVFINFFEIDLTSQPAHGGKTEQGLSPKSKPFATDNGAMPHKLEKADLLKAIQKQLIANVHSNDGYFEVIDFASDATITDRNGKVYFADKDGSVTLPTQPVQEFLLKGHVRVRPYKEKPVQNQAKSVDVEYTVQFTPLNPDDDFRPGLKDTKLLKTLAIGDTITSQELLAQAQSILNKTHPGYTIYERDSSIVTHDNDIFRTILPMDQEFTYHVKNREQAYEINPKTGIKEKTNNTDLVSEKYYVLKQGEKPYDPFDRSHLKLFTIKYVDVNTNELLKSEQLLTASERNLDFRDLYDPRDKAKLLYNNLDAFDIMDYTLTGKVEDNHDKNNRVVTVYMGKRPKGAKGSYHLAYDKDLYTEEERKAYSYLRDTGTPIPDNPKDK

[7] = target: T3, Aminopeptidase N (Plasmodium falciparum FcB1/Columbia, UniProt O96935); experiment: P. falciparum M1AAP inhibitors, biochemical, fluorogenic H-Leu-NHMec substrate, 1536-well (AID 1445); parameters: species or system Plasmodium falciparum 3D7, 3D7
T3 sequence (O96935 whole entry): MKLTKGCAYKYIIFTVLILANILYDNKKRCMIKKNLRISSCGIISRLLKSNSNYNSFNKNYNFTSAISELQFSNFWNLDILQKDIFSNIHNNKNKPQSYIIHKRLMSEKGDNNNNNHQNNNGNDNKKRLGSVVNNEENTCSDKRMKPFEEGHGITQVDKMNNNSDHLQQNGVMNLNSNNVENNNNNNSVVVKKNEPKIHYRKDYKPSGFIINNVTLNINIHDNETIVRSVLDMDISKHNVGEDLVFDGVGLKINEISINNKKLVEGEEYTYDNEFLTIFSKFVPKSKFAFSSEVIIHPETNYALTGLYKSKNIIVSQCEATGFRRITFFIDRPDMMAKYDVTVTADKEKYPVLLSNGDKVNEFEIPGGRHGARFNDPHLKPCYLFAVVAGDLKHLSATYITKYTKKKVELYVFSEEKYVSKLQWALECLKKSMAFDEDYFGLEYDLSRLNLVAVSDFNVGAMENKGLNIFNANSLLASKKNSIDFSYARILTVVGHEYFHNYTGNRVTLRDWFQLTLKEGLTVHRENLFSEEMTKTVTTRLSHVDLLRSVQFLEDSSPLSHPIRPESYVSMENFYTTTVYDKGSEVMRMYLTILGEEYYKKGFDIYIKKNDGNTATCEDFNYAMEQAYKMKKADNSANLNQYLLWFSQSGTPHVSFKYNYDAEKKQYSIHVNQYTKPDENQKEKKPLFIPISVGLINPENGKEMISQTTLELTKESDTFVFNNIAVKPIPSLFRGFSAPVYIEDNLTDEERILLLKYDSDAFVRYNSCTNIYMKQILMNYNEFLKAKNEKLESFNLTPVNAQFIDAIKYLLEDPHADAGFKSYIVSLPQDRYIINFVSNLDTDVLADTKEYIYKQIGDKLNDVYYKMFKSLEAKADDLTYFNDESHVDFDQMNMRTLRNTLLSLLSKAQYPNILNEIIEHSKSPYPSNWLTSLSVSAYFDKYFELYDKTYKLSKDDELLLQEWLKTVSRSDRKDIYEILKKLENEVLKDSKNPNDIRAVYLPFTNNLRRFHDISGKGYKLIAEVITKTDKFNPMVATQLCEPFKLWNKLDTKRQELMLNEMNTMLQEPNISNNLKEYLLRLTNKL

[8] = target: T4, Replicative DNA helicase DnaB (Mycobacterium tuberculosis, UniProt P9WMR3); experiment: DnaB intein splicing inhibitors, dose response, biochemical, cell-free fluorescence (AID 449749); assay type: functional
T4 sequence (P9WMR3 whole entry): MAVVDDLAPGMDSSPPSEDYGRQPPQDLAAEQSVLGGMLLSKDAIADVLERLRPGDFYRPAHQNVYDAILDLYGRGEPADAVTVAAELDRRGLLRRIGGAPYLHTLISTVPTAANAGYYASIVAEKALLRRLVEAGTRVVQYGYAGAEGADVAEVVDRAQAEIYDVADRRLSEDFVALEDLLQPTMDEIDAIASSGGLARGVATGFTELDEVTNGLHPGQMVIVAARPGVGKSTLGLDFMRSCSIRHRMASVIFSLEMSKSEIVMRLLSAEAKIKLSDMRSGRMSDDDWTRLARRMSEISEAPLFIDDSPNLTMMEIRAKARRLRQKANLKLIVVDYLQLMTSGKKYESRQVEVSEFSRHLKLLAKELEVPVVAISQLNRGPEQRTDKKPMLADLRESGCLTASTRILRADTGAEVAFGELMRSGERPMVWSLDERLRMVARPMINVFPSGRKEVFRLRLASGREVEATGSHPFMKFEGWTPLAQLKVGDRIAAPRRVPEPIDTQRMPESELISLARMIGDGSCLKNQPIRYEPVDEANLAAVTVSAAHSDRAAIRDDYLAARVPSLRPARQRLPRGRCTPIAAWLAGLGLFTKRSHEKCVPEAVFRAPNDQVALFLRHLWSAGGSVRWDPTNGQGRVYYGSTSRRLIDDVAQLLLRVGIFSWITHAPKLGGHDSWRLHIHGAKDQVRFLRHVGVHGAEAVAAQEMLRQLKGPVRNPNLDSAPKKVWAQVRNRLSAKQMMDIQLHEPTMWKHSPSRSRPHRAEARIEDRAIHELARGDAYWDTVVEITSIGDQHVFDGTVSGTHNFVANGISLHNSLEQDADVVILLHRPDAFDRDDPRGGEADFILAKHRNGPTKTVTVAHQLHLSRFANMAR

[9] = A Cell Based Secondary Assay To Explore Cytotoxicity of Compounds that Sensitize Mycobacterium Tuberculosis to Beta-Lactam Antibiotics.; assay type: functional
[10] = target: Paired box protein Pax-8 (Homo sapiens, UniProt Q06710); experiment: inhibitors of PAX8-driven TPO luciferase reporter, dose response, RMG-I cells, cherry-pick (AID 687027); assay type: functional, cell-based;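 also: luciferase reporter driven by Pax8 target thyroperoxidase promoter measured by SteadyGlo luminescence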
Chain of Paired box protein Pax-8 (Q06710 whole entry): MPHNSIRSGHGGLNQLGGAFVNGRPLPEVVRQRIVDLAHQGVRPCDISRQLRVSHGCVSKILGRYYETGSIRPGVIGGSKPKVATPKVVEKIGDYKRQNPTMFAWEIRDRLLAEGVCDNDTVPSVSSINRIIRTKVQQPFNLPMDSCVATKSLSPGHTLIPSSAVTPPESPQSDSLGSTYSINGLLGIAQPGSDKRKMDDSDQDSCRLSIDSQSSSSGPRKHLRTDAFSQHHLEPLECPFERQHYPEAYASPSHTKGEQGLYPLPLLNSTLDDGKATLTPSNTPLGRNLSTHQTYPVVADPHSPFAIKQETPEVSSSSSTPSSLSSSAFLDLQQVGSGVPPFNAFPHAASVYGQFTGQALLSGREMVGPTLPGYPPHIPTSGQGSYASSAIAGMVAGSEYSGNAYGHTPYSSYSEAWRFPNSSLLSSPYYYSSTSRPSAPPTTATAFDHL

[11] = A549 cell cytotoxicity, dose response, cytotoxicity control, plate reader, cherry-pick, antagonist series (AID 743412); assay type: functional, cell-based
[12] = MC4R antagonists, dose response, counter-screen for LGR2 antagonist project, cell-based, plate reader, cherry pick (AID 743444); assay type: functional;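 also: transfected HEK 293 cells stimulated with alpha-MSH peptide; potency of inhibitors of the alpha-MSH evoked signal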
[13] = LGR2 antagonists, dose response, cell-based, HEK293, CRE-luciferase reporter, cherry pick, set 2 (AID 743343); assay type: functional;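 also: transfected cells were stimulated with diluted bursicon conditioned medium after compound addition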
[14] = HepG2 cell cytotoxicity, dose response, cytotoxicity control, plate reader, cherry-pick, antagonist series (AID 743416); assay type: functional, cell-based
[15] = target: T5, Microphthalmia-associated transcription factor (Homo sapiens, UniProt O75030); experiment: TRPM1 promoter luciferase signal decrease, dose response, MITF inhibitor project, cell-based, SK-MEL-5, cherry-picked, set 3 (AID 493073); assay type: functional
T5 sequence (O75030 whole entry): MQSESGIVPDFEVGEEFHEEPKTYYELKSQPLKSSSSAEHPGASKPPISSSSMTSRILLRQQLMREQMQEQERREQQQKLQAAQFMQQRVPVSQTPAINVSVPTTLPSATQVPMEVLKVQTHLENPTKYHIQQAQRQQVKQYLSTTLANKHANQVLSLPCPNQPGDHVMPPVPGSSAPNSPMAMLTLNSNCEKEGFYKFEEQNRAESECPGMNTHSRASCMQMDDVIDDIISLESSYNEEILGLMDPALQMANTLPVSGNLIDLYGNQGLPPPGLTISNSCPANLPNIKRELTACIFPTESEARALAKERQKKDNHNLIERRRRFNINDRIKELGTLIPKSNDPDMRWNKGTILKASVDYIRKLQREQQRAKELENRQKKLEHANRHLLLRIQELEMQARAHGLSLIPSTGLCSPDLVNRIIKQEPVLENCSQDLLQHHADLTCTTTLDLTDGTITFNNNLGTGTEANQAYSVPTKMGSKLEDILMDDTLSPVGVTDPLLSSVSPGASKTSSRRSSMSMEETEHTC

[16] = HEK293 cell cytotoxicity, dose response, cytotoxicity control, plate reader, cherry-picked samples (AID 743446); assay type: functional, cell-based
[17] = test system: INS1; experiment: beta cell apoptosis inhibitors, cytokine rescue, dose response, luminescence, retest (AID 449756); assay type: functional, cell-based; settings: Rattus norvegicus;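 also: cell death triggered by IL-1 beta plus TNF-alpha plus IFN-gamma mixture; protective hits raise ATP signal compared with cytokine alone wells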
[18] = inhibitors of intracellular T. cruzi replication, confirmation, NIH3T3 host cells, beta-gal luminescence (AID 2044); assay type: functional, cell-based;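 also: intracellular parasites grown in NIH/3T3 mouse fibroblasts as host cells; luminescent beta-galactosidase reporter signal from transgenic T. cruzi replicating inside host cells; inhibitors lower the luminescence signal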
[19] = cytotoxicity toward NIH3T3 fibroblasts, dose response, counter-screen, cell-based, ATP luminescence, mouse fibroblasts (AID 2010); assay type: functional;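 also: cells exposed to compound for about 90 hours before reading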
[20] = target: Serine/threonine-protein phosphatase PP1-alpha catalytic subunit (Homo sapiens, UniProt P62136); experiment: PP1 phosphatase inhibitors, dose response, biochemical, fluorescence (AID 2403);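 also: phosphatase turnover of OMFP into fluorescent 3-O-methylfluorescein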
Chain of Serine/threonine-protein phosphatase PP1-alpha catalytic subunit (P62136 whole entry): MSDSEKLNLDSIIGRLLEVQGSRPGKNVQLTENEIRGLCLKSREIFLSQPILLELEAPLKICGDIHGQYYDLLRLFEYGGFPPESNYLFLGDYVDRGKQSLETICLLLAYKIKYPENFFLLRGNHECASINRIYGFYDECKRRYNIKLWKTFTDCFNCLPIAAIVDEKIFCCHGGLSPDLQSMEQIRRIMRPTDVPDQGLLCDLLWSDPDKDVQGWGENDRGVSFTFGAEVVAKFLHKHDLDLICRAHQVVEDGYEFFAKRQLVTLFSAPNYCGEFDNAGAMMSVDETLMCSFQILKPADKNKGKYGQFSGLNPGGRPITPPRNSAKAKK

[21] = target: Serine/threonine-protein phosphatase (Homo sapiens, UniProt Q9BPW0); experiment: Counterscreen for inhibitors of PP1: fluorescence-based biochemical high throughput dose response assay to identify inhibitors of Protein Phosphatase 5 (PP5). [Related pubchem assays: 2034 (Summary (PP5 inhibitors)), 1987 (PP5 inhibitors in singlate), 2235 (PP1 inhibitors in singlate)]
Chain of Serine/threonine-protein phosphatase (Q9BPW0 whole entry): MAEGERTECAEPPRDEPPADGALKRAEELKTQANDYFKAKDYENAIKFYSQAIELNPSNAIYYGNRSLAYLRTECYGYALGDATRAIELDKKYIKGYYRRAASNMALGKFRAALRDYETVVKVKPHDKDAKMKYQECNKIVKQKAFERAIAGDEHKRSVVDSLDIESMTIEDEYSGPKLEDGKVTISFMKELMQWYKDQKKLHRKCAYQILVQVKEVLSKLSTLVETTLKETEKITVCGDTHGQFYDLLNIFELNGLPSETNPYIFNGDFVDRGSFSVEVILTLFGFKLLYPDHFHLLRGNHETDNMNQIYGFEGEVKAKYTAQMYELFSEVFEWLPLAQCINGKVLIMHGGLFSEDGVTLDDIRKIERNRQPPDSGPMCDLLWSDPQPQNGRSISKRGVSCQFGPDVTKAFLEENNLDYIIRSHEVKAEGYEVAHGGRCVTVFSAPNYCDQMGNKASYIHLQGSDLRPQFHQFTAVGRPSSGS

O=C(O)c1ccccc1-c1ccccc1C(=O)Nc1ccc(-c2nc3cc(Cl)ccc3o2)cc1
EC50 [1]: 7.55 µM (active) | EC50 [2]: 11.7 µM (active) | IC50 [3]: > 50 µM (active) | IC50 [4]: 54 µM (active) | EC50 [5]: 14 µM (active) | EC50 [6]: > 150 µM (not active) | IC50 [7]: 32.6 µM (active) | AC50 [8]: 3.18 µM (active)

Cn1nnnc1Sc1ncnc2scc(-c3cccc(F)c3)c12
CC50 [9]: 17.6 µM (active) | AC50 [10]: 2.64 µM (active) | AC50 [11]: 7.53 µM (active) | AC50 [12]: 12 µM (active) | AC50 [13]: 6.24 µM (active) | AC50 [14]: 6.73 µM (active) | AC50 [15]: 5.98 µM (active) | AC50 [16]: 6.26 µM (active)

COc1ccc(Sc2nc(-c3ccccn3)ncc2OC)cc1
AC50 [17]: 5.13 µM (active) | EC50 [18]: 1.9 µM (active) | EC50 [19]: > 60 µM (inconclusive) | IC50 [20]: 6.04 µM (active) | IC50 [21]: > 67 µM (not active)
